Results published in paper PMC6804997 (PLoS ONE, 2019).

Columns and labels:
Assay in all cases: HDAC enzyme inhibition assay (Ac-peptide-AMC substrate)
Assay type in all cases: biochemical
[1] = biological target: T1, HDAC11 (Homo sapiens, UniProt Q96DB2); settings: HDAC11 vs HDAC6
T1 sequence (Q96DB2 1-347): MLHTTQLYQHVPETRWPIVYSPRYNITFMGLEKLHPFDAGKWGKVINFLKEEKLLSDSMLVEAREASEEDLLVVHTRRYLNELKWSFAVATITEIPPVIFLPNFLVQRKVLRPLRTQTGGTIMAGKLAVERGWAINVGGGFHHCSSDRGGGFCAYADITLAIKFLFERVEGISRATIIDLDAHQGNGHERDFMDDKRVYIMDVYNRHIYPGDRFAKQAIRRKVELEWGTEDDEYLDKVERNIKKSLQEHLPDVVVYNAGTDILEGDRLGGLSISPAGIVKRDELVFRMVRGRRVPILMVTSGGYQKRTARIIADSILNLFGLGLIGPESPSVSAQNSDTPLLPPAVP
Procedure: (§1) HDACs inhibition assay of F7 was performed utilizing 4-amino-7-methylcoumarin (AMC) labeled Ac-peptide (Ac-peptide-AMC) substrates, a service provided by Chempartner Company (Shanghai, China).
(§2) This assay was performed was performed utilizing 4-amino-7-methylcoumarin (AMC) labeled Ac-peptide (Ac-peptide-AMC) substrates, a service provided by Chempartner Company (Shanghai, China).

[2] = biological target: HDAC4 (Homo sapiens, UniProt P56524); settings: HDAC4 vs HDAC6
Procedure: as §1, §2

[3] = biological target: HDAC5 (Homo sapiens, UniProt Q9UQL6); settings: HDAC5 vs HDAC6
Procedure: as §1, §2

[4] = biological target: T2, HDAC7 (Homo sapiens, UniProt Q8WUI4); settings: HDAC7 vs HDAC6
T2 sequence (Q8WUI4 1-952): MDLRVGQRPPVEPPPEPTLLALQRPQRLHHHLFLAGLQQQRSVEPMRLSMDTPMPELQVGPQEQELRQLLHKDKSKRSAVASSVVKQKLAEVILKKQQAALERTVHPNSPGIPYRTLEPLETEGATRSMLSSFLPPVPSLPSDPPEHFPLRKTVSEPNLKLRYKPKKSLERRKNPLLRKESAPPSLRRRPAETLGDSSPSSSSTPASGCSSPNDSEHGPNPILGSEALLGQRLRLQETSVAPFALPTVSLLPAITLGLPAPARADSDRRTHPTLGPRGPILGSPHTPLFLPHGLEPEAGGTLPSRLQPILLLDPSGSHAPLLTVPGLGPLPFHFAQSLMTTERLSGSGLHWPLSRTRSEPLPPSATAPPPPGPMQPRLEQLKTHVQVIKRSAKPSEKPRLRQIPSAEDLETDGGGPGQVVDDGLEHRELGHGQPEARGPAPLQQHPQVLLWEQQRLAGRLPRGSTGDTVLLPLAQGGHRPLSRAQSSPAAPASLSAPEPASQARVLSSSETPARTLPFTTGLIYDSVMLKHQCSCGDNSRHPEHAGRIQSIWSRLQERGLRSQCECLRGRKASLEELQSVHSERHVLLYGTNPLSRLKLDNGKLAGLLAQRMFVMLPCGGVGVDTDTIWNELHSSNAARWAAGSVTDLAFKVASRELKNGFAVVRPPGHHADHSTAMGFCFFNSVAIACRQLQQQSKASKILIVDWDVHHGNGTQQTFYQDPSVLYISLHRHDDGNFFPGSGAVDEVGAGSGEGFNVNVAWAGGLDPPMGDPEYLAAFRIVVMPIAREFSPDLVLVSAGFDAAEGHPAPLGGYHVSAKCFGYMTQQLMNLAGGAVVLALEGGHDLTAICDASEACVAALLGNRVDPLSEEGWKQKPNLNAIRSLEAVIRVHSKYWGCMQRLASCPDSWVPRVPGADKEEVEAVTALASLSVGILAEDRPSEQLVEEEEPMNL
Procedure: as §1, §2

[5] = biological target: HDAC9 (Homo sapiens, UniProt Q9UKV0); settings: HDAC9 vs HDAC6
Procedure: as §1, §2

HDAC4, sequence (P56524 whole entry, species assumed): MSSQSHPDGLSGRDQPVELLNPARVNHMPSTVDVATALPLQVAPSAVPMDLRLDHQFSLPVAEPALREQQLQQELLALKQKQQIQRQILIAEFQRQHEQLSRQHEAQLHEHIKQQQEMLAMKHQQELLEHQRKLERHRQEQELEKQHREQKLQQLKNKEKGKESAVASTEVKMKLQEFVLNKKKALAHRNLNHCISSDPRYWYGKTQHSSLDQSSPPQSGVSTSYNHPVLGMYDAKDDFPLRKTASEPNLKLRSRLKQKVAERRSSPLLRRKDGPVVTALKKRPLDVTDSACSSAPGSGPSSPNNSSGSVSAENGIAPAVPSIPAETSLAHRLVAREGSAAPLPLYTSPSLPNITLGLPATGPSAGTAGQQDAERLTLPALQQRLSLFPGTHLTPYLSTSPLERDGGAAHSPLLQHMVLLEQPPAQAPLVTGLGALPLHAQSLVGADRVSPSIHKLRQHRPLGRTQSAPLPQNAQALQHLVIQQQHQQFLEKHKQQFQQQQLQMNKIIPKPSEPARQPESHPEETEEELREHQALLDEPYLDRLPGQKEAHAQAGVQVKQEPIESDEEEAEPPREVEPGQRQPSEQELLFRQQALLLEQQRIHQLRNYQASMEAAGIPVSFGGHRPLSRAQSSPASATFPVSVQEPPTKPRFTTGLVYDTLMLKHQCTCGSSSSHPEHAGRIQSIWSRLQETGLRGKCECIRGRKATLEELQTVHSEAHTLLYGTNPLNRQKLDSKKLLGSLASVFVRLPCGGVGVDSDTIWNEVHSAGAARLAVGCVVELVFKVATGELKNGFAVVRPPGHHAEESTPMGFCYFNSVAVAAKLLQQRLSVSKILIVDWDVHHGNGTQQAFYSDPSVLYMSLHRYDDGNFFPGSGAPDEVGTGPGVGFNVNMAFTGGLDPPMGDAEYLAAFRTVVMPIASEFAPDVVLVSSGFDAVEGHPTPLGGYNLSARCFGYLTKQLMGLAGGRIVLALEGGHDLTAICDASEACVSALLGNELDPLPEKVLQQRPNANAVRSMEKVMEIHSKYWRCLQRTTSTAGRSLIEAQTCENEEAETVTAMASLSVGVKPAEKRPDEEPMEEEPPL
HDAC5, sequence (Q9UQL6 whole entry, species assumed): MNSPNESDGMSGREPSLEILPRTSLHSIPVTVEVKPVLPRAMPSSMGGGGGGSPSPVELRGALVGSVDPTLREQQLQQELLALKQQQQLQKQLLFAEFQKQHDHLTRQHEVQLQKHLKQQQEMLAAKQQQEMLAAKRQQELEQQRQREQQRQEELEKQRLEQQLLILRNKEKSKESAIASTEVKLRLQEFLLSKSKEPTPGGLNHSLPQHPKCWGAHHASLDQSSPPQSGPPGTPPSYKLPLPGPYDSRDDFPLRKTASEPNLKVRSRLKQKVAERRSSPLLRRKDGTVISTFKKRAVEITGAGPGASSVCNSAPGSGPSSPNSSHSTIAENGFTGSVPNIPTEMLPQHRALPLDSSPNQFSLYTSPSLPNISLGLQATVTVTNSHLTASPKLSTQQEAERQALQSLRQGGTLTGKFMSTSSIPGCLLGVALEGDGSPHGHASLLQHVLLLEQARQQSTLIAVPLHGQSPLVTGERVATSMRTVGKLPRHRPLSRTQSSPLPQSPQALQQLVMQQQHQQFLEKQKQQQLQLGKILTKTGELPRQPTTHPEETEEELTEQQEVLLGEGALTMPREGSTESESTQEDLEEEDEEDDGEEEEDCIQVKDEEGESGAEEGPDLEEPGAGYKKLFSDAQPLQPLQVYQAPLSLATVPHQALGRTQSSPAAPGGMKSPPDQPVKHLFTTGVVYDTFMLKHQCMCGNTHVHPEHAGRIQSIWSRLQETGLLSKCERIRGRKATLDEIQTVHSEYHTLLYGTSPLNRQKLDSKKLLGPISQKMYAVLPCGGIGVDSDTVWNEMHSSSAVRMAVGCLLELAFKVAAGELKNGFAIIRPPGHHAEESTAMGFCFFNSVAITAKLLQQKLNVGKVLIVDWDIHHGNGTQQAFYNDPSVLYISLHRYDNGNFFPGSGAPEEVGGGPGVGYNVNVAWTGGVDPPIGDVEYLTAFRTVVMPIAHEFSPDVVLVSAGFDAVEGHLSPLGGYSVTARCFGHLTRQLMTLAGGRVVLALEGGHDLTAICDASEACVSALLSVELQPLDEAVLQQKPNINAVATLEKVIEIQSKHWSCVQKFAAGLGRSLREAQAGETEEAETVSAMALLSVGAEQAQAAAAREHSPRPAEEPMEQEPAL
HDAC9, sequence (Q9UKV0 whole entry, species assumed): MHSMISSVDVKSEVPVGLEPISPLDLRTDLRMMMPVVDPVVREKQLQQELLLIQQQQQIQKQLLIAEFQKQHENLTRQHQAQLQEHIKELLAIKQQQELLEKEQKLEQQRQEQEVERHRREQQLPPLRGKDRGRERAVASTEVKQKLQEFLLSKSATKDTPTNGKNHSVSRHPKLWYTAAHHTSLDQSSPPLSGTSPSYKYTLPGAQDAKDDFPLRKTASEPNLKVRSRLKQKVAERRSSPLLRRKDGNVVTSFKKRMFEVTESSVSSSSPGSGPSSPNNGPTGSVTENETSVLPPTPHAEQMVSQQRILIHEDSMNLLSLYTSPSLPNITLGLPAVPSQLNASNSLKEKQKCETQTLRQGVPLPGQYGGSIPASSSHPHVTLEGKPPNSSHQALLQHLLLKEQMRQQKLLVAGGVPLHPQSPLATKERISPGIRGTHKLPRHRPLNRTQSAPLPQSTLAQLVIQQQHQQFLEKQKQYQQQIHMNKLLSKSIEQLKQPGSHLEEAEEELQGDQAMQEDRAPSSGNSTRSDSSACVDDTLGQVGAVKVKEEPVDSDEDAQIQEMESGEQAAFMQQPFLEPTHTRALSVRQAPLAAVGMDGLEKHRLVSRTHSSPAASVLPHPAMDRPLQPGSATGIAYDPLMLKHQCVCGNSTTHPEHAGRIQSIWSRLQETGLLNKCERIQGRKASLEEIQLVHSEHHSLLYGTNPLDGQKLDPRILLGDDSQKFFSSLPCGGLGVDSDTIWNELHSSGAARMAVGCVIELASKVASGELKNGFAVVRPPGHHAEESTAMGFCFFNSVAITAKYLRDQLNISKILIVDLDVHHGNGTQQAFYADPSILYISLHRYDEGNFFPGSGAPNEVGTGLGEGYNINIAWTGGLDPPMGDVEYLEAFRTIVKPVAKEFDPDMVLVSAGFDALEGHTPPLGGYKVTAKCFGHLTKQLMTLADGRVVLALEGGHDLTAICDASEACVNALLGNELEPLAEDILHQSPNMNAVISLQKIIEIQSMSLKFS

COc1ccc(N(C)c2nc(C)nc3ccccc23)cc1OCCCC(=O)NO [23BB, N-hydroxy-4-(2-methoxy-5-(methyl(2-methylquinazolin-4-yl)-amino)phenoxy)butanamide]
> 588.235: Selective Ratio HDAC11 [1] | Selective Ratio HDAC4 [2] | Selective Ratio HDAC5 [3] | Selective Ratio HDAC7 [4] | Selective Ratio HDAC9 [5]
